SMILES strings stand for the structures. Bridge positions count the residues as written; N and C are the ends. Square brackets hold non-standard residues; d marks the D form. Peptide text beside a SMILES is read from it. NMeR = CN[C@@H](CCCNC(=N)N)C(=O)O; Aad = N[C@@H](CCCC(=O)O)C(=O)O; Pen = CC(C)(S)[C@H](N)C(=O)O; Tle = CC(C)(C)[C@H](N)C(=O)O

For data set [1], the system named is Rattus norvegicus. Nature of the data set: Antinociceptive activity in Sprague-Dawley rat model assessed as maximum possible effect at 10 mg/kg, sc measured every 10 mins for 60 mins by radiant heat tail-flick test relative to control. It counts as functional. Conditions: 1 h.
For data set [2], the species on record is Rattus norvegicus. Nature of the data set: animal or person. The settings on record: Sprague-Dawley, sc, 1 h.
Description: Antinociceptive activity in Sprague-Dawley rat model assessed as effective dose administered subcutaneously and measured every 10 mins for 60 mins by radiant heat tail-flick test
In data set [3] the test system is Rattus norvegicus. Nature of the data set: Antinociceptive activity in Sprague-Dawley rat model administered subcutaneously and measured every 10 mins for 60 mins by radiant heat tail-flick test. The settings on record: dose 1-10 mg/kg. It counts as functional, organism-based. On the technique in general: Thermal pain tests record how soon the animal reacts.
For data set [4], the target named is Neurotensin receptor type 2 (Homo sapiens, UniProt O95665). Nature of the data set: Binding affinity to NTS2 (unknown origin).
Chain of Neurotensin receptor type 2 (O95665 whole entry): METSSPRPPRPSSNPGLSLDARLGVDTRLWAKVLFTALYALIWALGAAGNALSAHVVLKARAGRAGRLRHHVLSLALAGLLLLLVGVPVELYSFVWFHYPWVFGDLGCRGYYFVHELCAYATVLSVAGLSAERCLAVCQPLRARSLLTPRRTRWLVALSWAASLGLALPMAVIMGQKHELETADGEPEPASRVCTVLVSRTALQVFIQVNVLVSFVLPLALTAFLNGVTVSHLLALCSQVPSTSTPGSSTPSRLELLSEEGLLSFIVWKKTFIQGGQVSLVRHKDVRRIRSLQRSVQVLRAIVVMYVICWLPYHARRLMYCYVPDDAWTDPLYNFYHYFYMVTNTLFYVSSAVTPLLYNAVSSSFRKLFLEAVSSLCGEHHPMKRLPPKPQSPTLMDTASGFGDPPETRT
The target in data set [5] is Neurotensin receptor type 1 (Mus musculus, UniProt O88319). Nature of the data set: Displacement of [3H]-neurotensin from NTS1 in mouse brain membrane incubated for 30 mins by liquid scintillation counter analysis. The class given is cell membranes. (Displacement assays read how much labelled ligand stays bound in the presence of the test substance.)
Chain of Neurotensin receptor type 1 (O88319 whole entry): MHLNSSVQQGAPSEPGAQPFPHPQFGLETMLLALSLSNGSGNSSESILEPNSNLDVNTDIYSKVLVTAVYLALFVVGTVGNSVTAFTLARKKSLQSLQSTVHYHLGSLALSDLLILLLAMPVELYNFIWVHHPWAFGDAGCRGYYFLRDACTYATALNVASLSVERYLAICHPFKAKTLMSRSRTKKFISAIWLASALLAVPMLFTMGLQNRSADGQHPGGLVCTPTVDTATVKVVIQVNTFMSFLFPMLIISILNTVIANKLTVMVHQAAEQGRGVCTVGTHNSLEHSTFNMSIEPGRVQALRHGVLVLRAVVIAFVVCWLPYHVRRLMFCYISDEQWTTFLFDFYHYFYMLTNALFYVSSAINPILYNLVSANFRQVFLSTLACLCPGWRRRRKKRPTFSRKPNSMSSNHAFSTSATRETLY
The subject of data set [6] is Rattus norvegicus. Nature of the data set: Antinociceptive activity in Sprague-Dawley rat model assessed as maximum possible effect at 150 microg/kg, IT measured every 10 mins for 60 mins by radiant heat tail-flick test relative to control. The class given is functional. The settings on record: dose 150 µg/kg, 1 h.
Data set [7] can be described thus: Stability of compound in rat CSF assessed as half life at 1 mM incubated for 24 hrs by UPLC-MS analysis. The class given is ADME, tissue-based, Cerebrospinal fluid.
Data set [8] in a line: Stability of compound in rat plasma assessed as half life at 1 mM incubated for 1 to 20 mins by UPLC-MS analysis. It counts as ADME, cell-free. The settings on record: time 1-20 min.
The subject of a further data set is Ileum. Nature of the data set: Myorelaxant activity in Sprague-Dawley rat ileum assessed as reduction in carbachol-induced contractions by force transducer relaxation assay. It counts as functional, tissue-based.
The nature of data set [9]: Cardiotoxicity in Sprague-Dawley rat assessed as decrease in mean arterial blood pressure at 0.1 mg/kg, iv measured up to 1000 seconds. The class given is toxicity, organism-based. Conditions: in vivo, time <=1000 sec.

What is called ED50 is the dose at which the effect has come halfway, by size or by number of responders. As for `CN1CC[C@]23c4c5ccc(O)c4O[C@H]2[C@@H](O)C=C[C@H]3[C@H]1C5` [MORPHINE], the MPE in the data set with Rattus norvegicus [1] was found to be 83.3%. In the data set listed under Rattus norvegicus [2], the ED50 was 3.6 mg/kg. Besides, the Activity result in the data set on Rattus norvegicus [3] is “Dose-dependent effect”.
Usually Ki stands for a dissociation constant, usually derived from enzyme kinetics or from competition with a known ligand. In data set [4], `CC[C@H](C)[C@H](NC(=O)[C@@H]1Cc2ccc(O)c(c2)C/C=C/CCCCCC[C@H](N)C(=O)N[C@@H](CCCCN)C(=O)N2CCC[C@H]2C(=O)N1)C(=O)N[C@@H](CC(C)C)C(=O)O` returned a Ki of 24 nM.
`CC(C)C[C@H](NC(=O)[C@@H]1CCCC(=O)N[C@@H](CCCNC(=N)N)C(=O)N[C@@H](CCCCN)C(=O)N2CCC[C@H]2C(=O)N[C@@H](Cc2c[nH]c3ccccc23)C(=O)N1)C(=O)O` (RKPW[Aad]L-OH; lactam N-5) returned a Ki in data set [5] of 16 nM.
Turning to `CC(C)C[C@@H]1NC(=O)[C@H](C(C)(C)C)NC(=O)[C@H](Cc2c[nH]c3ccccc23)NC(=O)[C@@H]2CCCN2C(=O)[C@H](CCCCN)NC(=O)[C@H](CCCNC(=N)N)NC1=O` (cyclo(KPW[Tle]LR)), the Ki in data set [5] came out at 410 nM.
As to `CN[C@@H](CCCNC(=N)N)C(=O)N[C@H]1CSSC(C)(C)[C@@H](C(=O)N[C@@H](CC(C)C)C(=O)O)NC(=O)[C@H](Cc2c[nH]c3ccccc23)NC(=O)[C@@H]2CCCN2C1=O` (H-[NMeR]CPW[Pen]L-OH; disulfide 2-5), in data set [5], the inhibitory constant (Ki) was determined as 83 nM.
As to `CC[C@H](C)[C@H](NC(=O)[C@@H]1Cc2ccc(O)c(c2)C/C=C/CNCCC[C@H](N)C(=O)N[C@@H](CCCCN)C(=O)N2CCC[C@H]2C(=O)N1)C(=O)N[C@@H](CC(C)C)C(=O)O`, the MPE in the data set on Rattus norvegicus [6] came out at 50%. Moreover, in data set [4], the affinity, expressed as Ki, was 4.5 nM.
A word on the half-life: it is the time in which the quantity being followed falls by half. The EC50 is the midpoint of the concentration-response curve. Consider `CC[C@H](C)[C@H](NC(=O)[C@H](Cc1ccc(O)cc1)NC(=O)[C@@H]1CCCN1C(=O)[C@H](CCCNC(=N)N)NC(=O)[C@@H](N)CCCNC(=N)N)C(=O)N[C@@H](CC(C)C)C(=O)O`, for which the figures for the half-life at 1000 µM in data set [7] and in [8] were 14.9 h and 1.6 min, respectively. The values for the Activity result (in the data set with Ileum; in data set [9]) were “Dose-dependent effect” and “<= 50 mmHg”, respectively. In the data set with Ileum, the EC50 was 3.9 nM.
In [4], `CC[C@H](C)[C@H](NC(=O)[C@@H]1Cc2ccc(O)c(c2)C/C=C/CNCCCC[C@H](N)C(=O)N[C@@H](CCCCN)C(=O)N2CCC[C@H]2C(=O)N1)C(=O)N[C@@H](CC(C)C)C(=O)O` showed a Ki of 11000 nM.
On to `CN[C@@H](CCCNC(=N)N)C(=O)N[C@H]1CCCCNC(=O)CC[C@@H](C(=O)N[C@@H](CC(C)C)C(=O)O)NC(=O)[C@H](Cc2c[nH]c3ccccc23)NC(=O)[C@@H]2CCCN2C1=O` (H-[NMeR]KPWEL-OH; lactam 2-5), for which the affinity in data set [5] corresponds to a Ki of 770 nM.
In turn, `CC[C@H](C)[C@H](NC(=O)[C@@H]1Cc2ccc(O)c(c2)C/C=C/CCCCCCC(=O)N[C@@H](CCCCN)C(=O)N2CCC[C@H]2C(=O)N1)C(=O)N[C@@H](CC(C)C)C(=O)O` returned a Ki in data set [4] of more than 1 nM.

Values taken from ChEMBL document CHEMBL4732177 (J Med Chem, 2021).
